{"source": "paper PMC9534960", "about": "“De Novo Design of an Androgen Receptor DNA Binding Domain‐Targeted peptide PROTAC for Prostate Cancer Therapy” (Advanced Science, 2022)", "key": {"[1]": {"test_system": "AR in CWR22rv1 cells", "test": "Immunoblot AR degradation, CWR22rv1", "format": "cell-based", "conditions": "immunoblot (Figure S16)", "description": "H, I) IB analysis of WCLs from C4‐2 cells (H) and LNCaP cells (I) treated with CHX for the indicated times, with or without 250 nM Au‐AR DBD PROTAC drug treatment. The signal intensity of AR normalized to that of Vinculin was quantified. […] The signal intensities of AR and AR‐V7 normalized to that of Vinculin were quantified separately.\nTo investigate the AR cleavage ability of the Au‐AR DBD PROTAC drug, an immunoblot (IB) analysis of AR was performed. The primary antibody (catalog number:sc‐7305) targeting AR we used is raised against amino acids 299–315 of AR, so we could determine both AR and AR‐V7 at the same time.\nImmunoblotting was performed to determine the AR amount after Au‐AR DBD PROTAC treatment. Cells were lysed in EBC buffer (50 mM Tris (pH 7.5), 120 mM NaCl, and 0.5% NP‐40) supplemented with protease inhibitors. Cell lysates were quantified by a Pierce bicinchoninic acid (BCA) Protein Assay Kit (Thermo Fisher). Equal amounts of total proteins were loaded for western blotting analysis. The proteins were separated by SDS‐PAGE gels. Then proteins were transferred to polyvinylidene fluoride (PVDF) membranes and incubated with specific primary antibodies at 4 °C overnight. After incubating with HRP‐conjugated secondary antibody for 1 h at room temperature, the protein immunoreactive signals were tested."}, "[2]": {"test_system": "CWR22Rv1 xenografts", "test": "CWR22Rv1 subcutaneous xenograft, tumor growth", "format": "in vivo, nude mice", "conditions": "2 mg kg^−1, intraperitoneal injection, every three days for three weeks, n = 5 per group", "experimental": "(§1) Two administration routes were tested in the xenograft models, with subcutaneous injection (SC.) in C4‐2 models and intraperitoneal injection (IP.) in CWR‐22rv1 models. […] Each injection volume was 100 µl and PBS was used as control.\n(§2) IHC score analysis was performed by the Image J IHC profiler.\n(§3) A) Tumor growth curves of C4‐2 xenografts in nude mice treated as indicated (n = 5 per group). Statistical analysis was performed using the nonparametric Kruskal‐Wallis test; ****, p < 0.0001. The data are presented as the mean ± SD values (n = 5). B) Photos of C4‐2 tumors excised at the end of the experiment after different drug treatments. C) Average weight of tumors excised from each group of mice at the end of drug treatment. The data are presented as the mean ± SD values (n = 5). […] IHC scores were determined with ImageJ: 4, highly positive; 3, positive; 2, minimally positive; 1, negative. […] […]\n(§4) Treatment of five groups of mice (5 mice per group) was initiated (i.e., day 1) after tumors were established in 2 weeks as palpable masses (50 mm^3). […] The tumor length and width were measured with calipers, and the tumor volume was calculated using the following equation: tumor volume (V) = length × width^2/2. […] All IHC staining images were scored using ImageJ profiler as published protocol."}, "[3]": {"test_system": "C4‐2 xenografts", "test": "C4‐2 subcutaneous xenograft, tumor growth", "format": "in vivo, nude mice", "conditions": "2 mg kg^−1, subcutaneous injection, every three days for three weeks, n = 5 per group", "experimental": "as §1, §2, §3, §4"}, "[4]": {"test_system": "AR ΔDBD", "test": "ITC binding to AR ΔDBD", "conditions": "AR with mutation of amino acids (575‐591) in the DBD", "experimental": "To determine the specificity of AR pep‐PROTAC, mutation of amino acids (575‐591) in the AR DBD plasmid was conducted.\nITC (isothermal titration calorimetry) was an established technique that can determine the binding ability between protein and ligands. The signal measured was the heat released upon the interaction of the two reactants. All proteins – MDM2, AR‐V7, or AR ΔDBD were obtained with E.Coli expression and purified by affinity chromatography. All peptides were synthesized by solid‐phase peptide synthesis and purified by preparative high‐performance liquid chromatography. For ITC experiments, clean sample cells and injection syringe were cleaned according to the manufacturer's protocol before loading protein and peptide. Rinse the sample cell several times with 2 ml of buffer. Load the sample cell with 0.2 ml of protein solution (all proteins concentration were around 20 µM), being careful to avoid bubble formation, load the syringe with 0.04 ml peptide solution (all peptides concentrations were around 200 µM). Choose the temperature at 25 °C for the ITC experiments. a small volume (0.4 µl) for the first injection was used and keep the subsequent injections at the desired volume (2 µl for 19 injections). Once the experiment had finished, the ITC data was fitted with the analysis software for the instrument.\nFigure S20. Binding affinity between AR pep-PROTAC and AR-ΔDBD measured […]"}}, "note": "No end group written: not given here.", "data": [{"molecule": "N#Cc1ccc(O[C@H]2CC[C@H](NC(=O)c3ccc(N4CCC(CN5CCN(c6cc7c(cc6F)C(=O)N(C6CCC(=O)NC6=O)C7=O)CC5)CC4)nn3)CC2)cc1Cl", "note": "(stereo partly shown) [ARV‐110]", "values": [{"measurement": "full‐length AR degradation in CWR22rv1 cells (in words)", "setting": "[1]", "value": "induced full‐length AR degradation"}]}, {"molecule": "CNC(=O)c1ccc(N2C(=S)N(c3ccc(C#N)c(C(F)(F)F)c3)C(=O)C2(C)C)cc1F", "note": "[enzalutamide]", "values": [{"measurement": "effect on tumor growth, CWR22Rv1 xenograft", "setting": "[2]", "value": "but not the CWR22Rv1 xenograft model"}, {"measurement": "effect on tumor growth, C4‐2 xenograft", "setting": "[3]", "value": "inhibited tumor growth"}]}, {"molecule": "YLCSSNNNRERDKFRRGGSGGTSFEQFWAWLWP-NH2 (C-terminus assumed) [AR pep‐PROTAC]", "values": [{"measurement": "interaction with AR ΔDBD by ITC", "setting": "[4]", "value": "no interaction"}]}]}
